Measured values: patent US10695347B2, “Pyrimidine derivative and use thereof” (Hubei Bio-Pharmaceutical Industrial Technological Institute …, priority 2015, dated 2020)
pIC50: −log10 of the molar value.

Tests used:
ALK L1196M = ALK L1196M (Homo sapiens (Human), UniProt Q9UM73, L1196M); assay: Inhibition of ALK L1196M kinase activity (Caliper mobility shift); format: biochemical
Procedure: (§1) Inhibition of Compound I Against ALK Kinase Activity
(§2) • I. Preparation of 1× kinase buffer and stop buffer
(§3) 1) 1× Kinase Buffer • 50 mM HEPES. pH 7.5 • 0.0015% Brij-35 • 10 mM MgCl2 • 2 mM DTT • 2) stop buffer • 100 mM HEPES, pH 7.5 • 0.015% Brij-35 • 0.2% Coating Reagent #3 • 50 mM EDTA
(§4) 2. Prepare a Compound Solution to be Tested • Step 2.1 Dilute the compound to 50× of the final desired highest inhibitor concentration in reaction by 100% DMSO. Transfer 100 μl of this compound dilution to a well in a 96-well plate. For example, if desired highest inhibitor concentration is 1 μM, then prepare 50 μM of compound DMSO solution in this step.
(§5) Step 2.2 Further dilute said compound dilution by 3-fold in series, thus obtain 10 concentrations.
(§6) Step 2.3 Add 100 μl of 100% DMSO to two empty wells for no compound control and no enzyme control in the same 96-well plate. Mark the plate as source plate.
(§7) Step 2.4 Prepare an intermediate plate
(§8) Transfer 10 μl of each compound from the source plate to a new 96-well plate as the intermediate plate.
(§9) Add 90 μl of 1× kinase buffer to each well of the intermediate plate. Mix the compounds in the intermediate plate for 10 min on a shaker.
(§10) Transfer 5 μl of each well from the 96-well intermediate plate to a 384-well plate in duplicate. For example, A1 of the 96-well plate is transferred to A1 and A2 of the 384-well plate. A2 of the 96-well plate is transferred to A3 and A4 of the 384-well plate, and so on.
(§11) 4.1 Prepare a 2.5× kinase solution
(§12) Add kinase in 1× kinase base buffer, thus obtain the 2.5× kinase solution.
(§13) 4.2 Prepare a 2.5× peptide solution
(§14) 4.3 In each well of the assay plate obtained in step 3, there was 5 μL of the compound in 10% DMSO.
(§15) 4.4 Transfer the 2.5× enzyme solution to the assay plate.
(§16) 4.5 Incubate at room temperature for 10 min.
(§17) 4.6 Transfer the 2.5× peptide solution to the assay plate.
(§18) 4.7 Kinase reaction and stop
(§19) Incubate at 28° C. for 20 min.
(§20) Add 25 μl of stop buffer to stop reaction.
(§21) Conversion rate of the kinase was read via the Caliper.
(§22) 6.1 Copy conversion data from Caliper program.
(§23) 6.2 Convert conversion values to inhibition values with the following formula: Percent inhibition=(max−conversion)/(max−min)*100
(§24) where “max” stands for DMSO control; and “min” stands for low control.
(§25) 6.3 Fit the data in XLfit excel add-in version 4.3.1 and obtain IC50 values according to the following formula: Y=Bottom+(Top−Bottom)/[…].

Ba/F3 EML4-ALK cells = assay: Suppression of Ba/F3 EML4-ALK cell proliferation (CellTiter-Glo); format: cell-based; settings: 3 days incubation
Text: Cell media: RPMI-1640 medium, fetal calf serum (FCS), antibiotics (Penicillin-Streptomycin), IL-3, puromycin
Cell line: Ba/F3 EML4-ALK
Assay reagent: Cell Viability Assay Kit Celliter-Glo
(§26) Others: a 96-well plate, a 384-well plate, DMSO
(§27) As the amount of ATP can indicate the number of living cells directly, the living cells in medium are able to be quantified by determining the ATP level. In our experiment, we use a cell viability assay kit to quantify the living cells, which utilizes UltraGlow luciferase to generate a stable glow signal in the presence of ATP which is produced by metabolism of living cells, such as respiration. Specifically, a reagent CellTiter-Glo™ was added into cell culture media, and then the luminescent intensity was determined to measure proliferation of cells, as the luminescent intensity is in direct proportion to the ATP level which correlates positively to the number of living cells. The test plate was assayed by the Envision (PE).
(§28) Step 3.1 Culturing test cells
Ba/F3 EML4-ALK cells were planted into a 384-well plate, with almost 300 cells per well. The plate was placed in a carbon dioxide incubator overnight.
(§29) Step 3.2 Preparation of the compounds to be tested
10 concentrations of the working solutions were obtained in duplicate by dilution in 3-fold series with BRAVO.
Step 3.3 Mixing the compound to be tested with the test cells
The compounds to be tested at individual working concentrations were transferred into corresponding wells in the 384-well plate in the step 3.1, with 5 μM as the initial working concentration, and then the 384-well plate was incubated in the carbon dioxide incubator for 3 days.
To each well of the 384-well plate was added the reagent Promega CellTiter-Glo, and incubated at room temperature for 10 minutes to stabilize the luminescence signal. The results were read by the PerkinElmer Envision Multi-mode Plate Reader.

ALK = ALK (Homo sapiens (Human), UniProt Q9UM73); assay: Inhibition of ALK kinase activity (Caliper mobility shift); format: biochemical
Procedure: as §1, §2, §3, §4, §5, §6, §7, §8, §9, §10, §11, §12, §13, §14, §15, §16, §17, §18, §19, §20, §21, §22, §23, §24, §25

Karpas299 cells = assay: Suppression of Karpas299 cell proliferation (CellTiter-Glo); format: cell-based; settings: 3 days incubation; read-out: Inhibition activity on Karpas299 cells IC50
Procedure: as §27, with “culture” for “medium”, “living-cell testing” for “cell viability assay”, “tested with” for “assayed by”
Cell media: RPMI-1640 medium, fetal calf serum (FCS), antibiotics (Penicillin-Streptomycin)
Assay reagent: Cell Viability Assay Kit CellTiter-Glo
as §26, §28
Karpas 299 cells were plated into a black 384-well plate, with 2500 cells in 45 μl cell suspension per well. The plate was placed in a carbon dioxide incubator overnight.
as §29
Each compound to be tested was dissolved in DMSO at 10 mM as the stock solution, which was left in a nitrogen-gas tank for storage.
After dilution of 10 μL stock solution (10 mM) into 2.5 mM as a starting working solution, 10 concentrations of the working solutions from 5 μM to 0.25 nM were obtained in duplicate by further dilution in 3-fold series with ECHO.
Step 3.3 Mixing the compound with the test cells
To each well of a new 96-well plate were added 49 μl medium and 1 μl of the compounds to be tested at individual working concentrations (10 concentrations in total). After oscillation,
5 μl of mixture in each well of the 96-well plate was transferred into corresponding wells in the 384-well plate in the step 3.1. The 384-well plate was incubated in the carbon dioxide incubator for 3 days.
To each well of the 384-well plate was added […] reagent Promega CellTiter-Glo. and incubated at room temperature for 10 minutes to stabilize the luminescence signal. The results were read with the PerkinElmer Envision Multi-mode Plate Reader.

ALK-positive NSCLC = settings: 88 patients with ALK-positive NSCLCs who had undergone Crizotinib therapy, early clinical trial; cited from earlier work

Chain of ALK L1196M (Q9UM73 19-1620 L1196M): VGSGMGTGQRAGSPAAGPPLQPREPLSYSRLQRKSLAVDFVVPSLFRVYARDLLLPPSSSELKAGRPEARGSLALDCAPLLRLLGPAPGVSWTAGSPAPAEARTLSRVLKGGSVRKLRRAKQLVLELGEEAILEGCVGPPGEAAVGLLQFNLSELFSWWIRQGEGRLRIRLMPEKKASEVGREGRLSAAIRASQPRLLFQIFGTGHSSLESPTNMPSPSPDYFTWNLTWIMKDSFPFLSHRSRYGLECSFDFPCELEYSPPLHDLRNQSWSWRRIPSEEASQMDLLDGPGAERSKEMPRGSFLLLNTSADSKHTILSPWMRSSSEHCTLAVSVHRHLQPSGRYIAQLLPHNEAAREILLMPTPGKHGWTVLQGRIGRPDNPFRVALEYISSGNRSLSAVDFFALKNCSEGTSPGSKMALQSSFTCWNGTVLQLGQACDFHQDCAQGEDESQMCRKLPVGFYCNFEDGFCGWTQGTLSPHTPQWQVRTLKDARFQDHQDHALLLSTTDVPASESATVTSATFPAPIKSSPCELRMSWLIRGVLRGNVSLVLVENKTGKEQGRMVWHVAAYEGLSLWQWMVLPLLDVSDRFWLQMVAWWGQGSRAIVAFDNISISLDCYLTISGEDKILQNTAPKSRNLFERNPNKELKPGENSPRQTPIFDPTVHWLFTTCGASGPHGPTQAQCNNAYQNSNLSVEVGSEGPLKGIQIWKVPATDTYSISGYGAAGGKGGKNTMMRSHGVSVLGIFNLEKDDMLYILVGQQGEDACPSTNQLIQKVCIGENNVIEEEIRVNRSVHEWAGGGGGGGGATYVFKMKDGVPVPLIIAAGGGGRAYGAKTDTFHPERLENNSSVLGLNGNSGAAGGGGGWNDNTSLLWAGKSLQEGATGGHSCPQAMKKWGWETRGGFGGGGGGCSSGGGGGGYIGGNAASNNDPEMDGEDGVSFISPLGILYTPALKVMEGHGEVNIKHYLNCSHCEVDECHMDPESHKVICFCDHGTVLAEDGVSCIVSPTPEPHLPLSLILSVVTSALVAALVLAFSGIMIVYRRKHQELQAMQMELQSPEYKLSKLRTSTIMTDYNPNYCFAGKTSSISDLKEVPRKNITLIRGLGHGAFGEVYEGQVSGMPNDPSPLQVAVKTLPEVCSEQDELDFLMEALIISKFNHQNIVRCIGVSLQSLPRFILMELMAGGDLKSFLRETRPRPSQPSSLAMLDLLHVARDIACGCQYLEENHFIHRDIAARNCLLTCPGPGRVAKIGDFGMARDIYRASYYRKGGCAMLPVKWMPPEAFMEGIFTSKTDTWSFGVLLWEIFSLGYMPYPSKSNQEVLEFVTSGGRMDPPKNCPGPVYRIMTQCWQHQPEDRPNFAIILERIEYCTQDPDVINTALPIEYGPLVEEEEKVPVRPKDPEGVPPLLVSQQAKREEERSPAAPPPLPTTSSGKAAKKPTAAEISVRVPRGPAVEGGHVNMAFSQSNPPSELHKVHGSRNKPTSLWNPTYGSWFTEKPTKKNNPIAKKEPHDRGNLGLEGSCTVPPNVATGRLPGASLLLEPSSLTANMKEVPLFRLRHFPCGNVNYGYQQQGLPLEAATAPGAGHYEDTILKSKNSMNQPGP
Chain of ALK (Q9UM73 19-1620): as the sequence (Q9UM73 19-1620 L1196M) above, with M1178L counted along it

| pIC50 (ALK L1196M) | pIC50 (Ba/F3 EML4-ALK cells) | pIC50 (ALK) | pIC50 (Karpas299 cells) | Compound | response rate (ALK-positive NSCLC) |
| --- | --- | --- | --- | --- | --- |
| > 9.00 | > 7.70 | > 9.00 | > 7.30 | COc1cc(N2CCN(C(C)C)CC2)c(C)cc1Nc1ncc(OC(F)F)c(Nc2ccccc2S(=O)(=O)C(C)C)n1 [Compound I-115, 5-(difluoromethoxy)-N^2-(4-(4-isopropylpiperazin-1-yl)-2-methoxy-5-methylphenyl)-N^4-(2-(isopropylsulfonyl)phenyl) pyrimidine-2,4-diamine] | – |
| – | – | – | – | Cc1cc(Nc2ncc(Cl)c(Nc3ccccc3S(=O)(=O)C(C)C)n2)c(OC(C)C)cc1C1CCNCC1 [LDK378, Ceritinib] | 80% |
